Some test systems named below: EKVX; HCT-15; SN12C; SR; SK-MEL-2; A498; NCI-H460; OVCAR-8; SF-295; OVCAR-4; IGROV-1; M14; RPMI-8226; SF-268; TK-10; HOP-62; UACC-62; U-251; K562; A549.
Holding throughout (test): NCI-60 cell line screen, 48 h

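Cultured in 96-well plates, cells were exposed to test compound for 48 hours across five concentrations. Here, GI50 denotes the concentration required for 50% inhibition of growth.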 Activity calls are given as the source filed them. Cut-off read from the data, not from the text of the source: active = GI50 up to about 1.1 µM and inactive = higher.

On to `BrC(Br)=C1C(=C(Br)Br)C(Br)C1Br` (stereo not given), for which the GI50 in the assay with EKVX was 2.08 µM (inactive); in the assay on HCT-15 it was 0.301 µM; with SN12C, 0.716 µM (active); with SR, 0.043 µM (active); with SK-MEL-2, 0.789 µM (active); in the assay on A498, 1.06 µM (active). The GI50 with NCI-H460 is 0.114 µM (active); in the assay on OVCAR-8 it was 0.55 µM (active); in the assay with SF-295, 0.778 µM (active); in the assay on OVCAR-4, 2.51 µM (inactive); with IGROV-1 it was 0.628 µM (active); in the assay on M14, 0.198 µM (active). In addition, the GI50 with RPMI-8226 was 0.158 µM (active); in the assay on SF-268 it was 0.274 µM (active); with TK-10, 0.682 µM (active); in the assay with HOP-62, 1.02 µM (active); with UACC-62 it was 0.429 µM (active); in the assay with U-251, 0.65 µM (active). Also, the GI50 with K562 is 0.158 µM (active); with A549 it was 0.796 µM (active).
For the compound `Cc1cccc(/C=N/NC(=S)NC2CCCCC2)n1`, the GI50 in the assay with EKVX was 22.4 µM (inactive); in the assay with HCT-15, 5.26 µM; with SN12C it was 27.4 µM (inactive); in the assay on SR it was 4.76 µM (inactive); with SK-MEL-2, 24.1 µM (inactive); in the assay on A498, 28.1 µM (inactive). The GI50 in the assay with NCI-H460 was 13.5 µM (inactive); with OVCAR-8, 19.4 µM (inactive); with SF-295, 29 µM (inactive); in the assay on OVCAR-4, 17.3 µM (inactive); in the assay on IGROV-1 it was 21.3 µM (inactive); in the assay with M14, 23 µM (inactive). For the same compound, the GI50 in the assay with RPMI-8226 was 6.92 µM (inactive); in the assay with SF-268, 32 µM (inactive); in the assay on TK-10, 58.5 µM (inactive); with HOP-62, 20.9 µM (inactive); in the assay on UACC-62 it was 21.3 µM (inactive); in the assay on U-251, 20.5 µM (inactive). The GI50 is 4.61 µM (inactive) in the assay with K562 and 28.9 µM (inactive) in the assay with A549.
Take `O=C1CC2(CCNCC2)C(=O)N1N1CCOCC1`: the GI50 in the assay with EKVX is > 100 µM (inactive); with HCT-15 it was over 100 µM; in the assay on SN12C it was > 100 µM (inactive); in the assay with SR, > 100 µM (inactive); with SK-MEL-2 it was > 100 µM (inactive); in the assay with A498, > 100 µM (inactive). The GI50 with NCI-H460, with OVCAR-8, in the assay with SF-295, in the assay on OVCAR-4, in the assay on IGROV-1 and with M14 was > 100 µM (inactive) in each case. For the same compound, the GI50 with RPMI-8226, in the assay on SF-268, in the assay on TK-10, in the assay with HOP-62, in the assay on UACC-62 and in the assay on U-251 was > 100 µM (inactive) in each case. Moreover, the GI50 in the assay with K562 and with A549 was > 100 µM (inactive) in each case.
For `N#Cc1nc(C#N)n(S(=O)(=O)c2ccccc2)c1NS(=O)(=O)c1ccccc1`, the GI50 was > 53.2 µM (inactive) in the assay on EKVX; over 100 µM with HCT-15; > 100 µM (inactive) in the assay with SN12C; > 38.1 µM (inactive) in the assay on SR; > 31.6 µM (inactive) in the assay on SK-MEL-2; > 100 µM (inactive) in the assay with A498. Further, the GI50 in the assay with NCI-H460, with OVCAR-8, with SF-295, in the assay with OVCAR-4, in the assay with IGROV-1 and with M14 was > 100 µM (inactive) throughout. Besides, the GI50 in the assay with RPMI-8226, with SF-268, in the assay with TK-10, in the assay with HOP-62, with UACC-62 and in the assay with U-251 was > 100 µM (inactive) in each case. The GI50 with K562 and in the assay on A549 was > 100 µM (inactive) in each case.
As for `N#CC1=C(N2CCCC2)NC(=O)CC1=O`, the GI50 is > 100 µM (inactive) in the assay with EKVX; over 100 µM in the assay with HCT-15; > 100 µM (inactive) with SN12C; > 100 µM (inactive) in the assay on SR; > 100 µM (inactive) with SK-MEL-2; > 100 µM (inactive) with A498. Besides, the GI50 in the assay with NCI-H460, in the assay with OVCAR-8, in the assay on SF-295, in the assay with OVCAR-4, with IGROV-1 and in the assay with M14 was > 100 µM (inactive) each time. In addition, the GI50 with RPMI-8226, with SF-268, with TK-10, in the assay on HOP-62, in the assay with UACC-62 and in the assay on U-251 was > 100 µM (inactive) in each case. Also, the GI50 in the assay on K562 and with A549 was > 100 µM (inactive) throughout.
Consider `O=S(=O)(Cc1ccccc1)SCc1ccccc1`, for which the GI50 with EKVX is 30.2 µM (inactive); with HCT-15, 18.4 µM; with SN12C it was 24.7 µM (inactive); in the assay on SR, 10.9 µM (inactive); with SK-MEL-2 it was 30.4 µM (inactive); in the assay on A498 it was 25.3 µM (inactive). Moreover, the GI50 in the assay with NCI-H460 is 27.6 µM (inactive); in the assay with OVCAR-8 it was 15.2 µM (inactive); with SF-295 it was 24.7 µM (inactive); with OVCAR-4 it was 21.2 µM (inactive); in the assay with IGROV-1 it was 31.6 µM (inactive); in the assay on M14 it was 14.3 µM (inactive). For the same compound, the GI50 in the assay with RPMI-8226 was 13.3 µM (inactive); in the assay with SF-268, 36.8 µM (inactive); in the assay on TK-10 it was > 48.1 µM (inactive); in the assay on HOP-62, 44.6 µM (inactive); with UACC-62 it was 23.3 µM (inactive); in the assay with U-251, 26 µM (inactive). Besides, the GI50 was 4.91 µM (inactive) in the assay with K562 and 30.8 µM (inactive) with A549.
As for `CC(=O)OC(C)(C)[C@H]1O[C@]23O[C@]1(C)C[C@@H](C)[C@@H]2[C@@]1(C)CC[C@@]24C[C@@]25CC[C@H](O[C@@H]2OC[C@@H](O)[C@H](O)[C@H]2O)C(C)(C)[C@@H]5CC[C@H]4[C@]1(C)[C@H]3O`, the GI50 was 4.06 µM (inactive) in the assay with EKVX; 3.41 µM in the assay on HCT-15; 4.41 µM (inactive) with SN12C; 3.18 µM (inactive) with SR; 18.1 µM (inactive) in the assay on SK-MEL-2; 6.44 µM (inactive) with A498. In addition, the GI50 is 7.4 µM (inactive) with NCI-H460; 10.8 µM (inactive) with OVCAR-8; 8 µM (inactive) with SF-295; 3.95 µM (inactive) in the assay with OVCAR-4; 7.08 µM (inactive) with IGROV-1; 8.59 µM (inactive) with M14. Besides, the GI50 with RPMI-8226 was 7.69 µM (inactive); in the assay with SF-268, 14 µM (inactive); with TK-10 it was 10 µM (inactive); in the assay with HOP-62, 11.9 µM (inactive); in the assay with UACC-62, 14.6 µM (inactive); in the assay on U-251, 6.41 µM (inactive). Also, the GI50 in the assay on K562 is 4.5 µM (inactive); with A549, 6.41 µM (inactive).
For the compound `Cc1cc(Cl)ccc1Nc1sc(C(=O)c2cc3cc(Cl)ccc3o2)c(N)c1C#N`, the GI50 in the assay on EKVX is 17.9 µM (inactive); in the assay on HCT-15, 33 µM; with SN12C, 11.9 µM (inactive); in the assay on SR it was > 100 µM (inactive); in the assay with SK-MEL-2, > 44.9 µM (inactive); with A498, 5.6 µM (inactive). Besides, the GI50 was 5.96 µM (inactive) in the assay with NCI-H460; 11.4 µM (inactive) in the assay on OVCAR-8; 4.76 µM (inactive) in the assay on SF-295; 3.59 µM (inactive) in the assay on OVCAR-4; 16.3 µM (inactive) in the assay on IGROV-1; 9.57 µM (inactive) with M14. The GI50 is 2.27 µM (inactive) with RPMI-8226; 5.3 µM (inactive) with SF-268; > 35.8 µM (inactive) with TK-10; 4.86 µM (inactive) in the assay on HOP-62; 6 µM (inactive) in the assay with UACC-62; 4.14 µM (inactive) in the assay with U-251. Also, the GI50 in the assay with K562 is 18.7 µM (inactive); with A549, 5.98 µM (inactive).
For `C=CCn1c(=O)ccn(/C(=C/C(=O)OCC)C(=O)OCC)c1=O`, the GI50 with EKVX was 17.2 µM (inactive); with HCT-15, 1.83 µM; with SN12C, 8.73 µM (inactive); in the assay on SR it was 6.4 µM (inactive); in the assay on SK-MEL-2, 15.7 µM (inactive); in the assay on A498, 17.9 µM (inactive). The GI50 was 16.1 µM (inactive) in the assay on NCI-H460; 15.6 µM (inactive) in the assay on OVCAR-8; > 52.4 µM (inactive) in the assay on SF-295; 12.4 µM (inactive) in the assay with OVCAR-4; 15.3 µM (inactive) in the assay on IGROV-1; 13.5 µM (inactive) in the assay with M14. The GI50 with RPMI-8226 was 7.94 µM (inactive); in the assay with SF-268 it was 19.7 µM (inactive); with TK-10 it was 11.9 µM (inactive); with HOP-62, 20.9 µM (inactive); in the assay on UACC-62, 15.7 µM (inactive); in the assay on U-251, 14.4 µM (inactive). Moreover, the figures for the GI50 with K562 and in the assay on A549 were 3.08 µM (inactive) and 17.5 µM (inactive), respectively.
As to `N#CC1CCCC2SC(F)(F)C(F)(F)C12` (stereo not given), the GI50 in the assay on EKVX was > 100 µM (inactive); with HCT-15, over 100 µM; with SN12C it was > 100 µM (inactive); in the assay on SR it was 23.8 µM (inactive); in the assay with SK-MEL-2, > 100 µM (inactive); in the assay with A498, > 100 µM (inactive). The GI50 in the assay with NCI-H460, with OVCAR-8, in the assay with SF-295, in the assay on OVCAR-4, in the assay on IGROV-1 and in the assay with M14 was > 100 µM (inactive) throughout. Besides, the GI50 in the assay on RPMI-8226 is > 46.8 µM (inactive); in the assay on SF-268 it was > 100 µM (inactive); with TK-10 it was > 100 µM (inactive); in the assay with HOP-62, > 100 µM (inactive); in the assay on UACC-62, > 100 µM (inactive); in the assay on U-251 it was > 100 µM (inactive). Moreover, the GI50 in the assay on K562 is 30.5 µM (inactive); in the assay with A549, > 100 µM (inactive).

The values are drawn from ChEMBL document CHEMBL1201862, “PubChem BioAssay data set” (2004).
